Results from ChEMBL document CHEMBL1201862, “PubChem BioAssay data set” (2004).
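The compound was tested at five concentrations on cells cultured in 96-well plates, with a 48-hour exposure period. Abbreviation: GI50, concentration required for 50% inhibition of growth.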 The source made the active and inactive calls. Cut-off read from the data, not from the text of the source: active = GI50 up to about 1.1 µM and inactive = higher.

Legend:
Experiment in all cases: NCI tumour cell line growth inhibition, 48 h
OVCAR-3 = system: OVCAR-3
UO-31 = system: UO-31
HOP-92 = system: HOP-92
RXF 393 = system: RXF 393
MCF7 = system: MCF7
SF-268 = system: SF-268
SN12C = system: SN12C
OVCAR-5 = system: OVCAR-5
OVCAR-4 = system: OVCAR-4
HCT-15 = system: HCT-15
KM12 = system: KM12
HOP-62 = system: HOP-62
SK-OV-3 = system: SK-OV-3
OVCAR-8 = system: OVCAR-8
SK-MEL-28 = system: SK-MEL-28
A549 = system: A549
PC-3 = system: PC-3
HT-29 = system: HT-29
Malme-3M = system: Malme-3M
HCC 2998 = system: HCC 2998

| Structure (SMILES) | GI50 (OVCAR-3) | GI50 (UO-31) | GI50 (HOP-92) | GI50 (RXF 393) | GI50 (MCF7) | GI50 (SF-268) | GI50 (SN12C) | GI50 (OVCAR-5) | GI50 (OVCAR-4) | GI50 (HCT-15) [µM] | GI50 (KM12) | GI50 (HOP-62) | GI50 (SK-OV-3) | GI50 (OVCAR-8) | GI50 (SK-MEL-28) | GI50 (A549) | GI50 (PC-3) | GI50 (HT-29) | GI50 (Malme-3M) | GI50 (HCC 2998) |
| --- | --- | --- | --- | --- | --- | --- | --- | --- | --- | --- | --- | --- | --- | --- | --- | --- | --- | --- | --- | --- |
| Cc1cc(Cc2c(C)c(C)c(Cc3cc(C)cc(C(C)(C)C)c3O)c(C)c2C)c(O)c(C(C)(C)C)c1 | > 100 µM (inactive) | > 100 µM (inactive) | > 100 µM (inactive) | > 100 µM (inactive) | > 100 µM (inactive) | > 100 µM (inactive) | > 100 µM (inactive) | > 100 µM (inactive) | > 100 µM (inactive) | > 100 | > 100 µM (inactive) | > 100 µM (inactive) | > 100 µM (inactive) | > 100 µM (inactive) | > 100 µM (inactive) | > 100 µM (inactive) | > 100 µM (inactive) | > 100 µM (inactive) | > 100 µM (inactive) |  |
| C=C1C(=O)O[C@H]2C(=O)[C@H](C)CCC[C@@](C)(O)/C=C\C[C@@]3(C)O[C@@H]3C[C@@H]12 | 11.2 µM (inactive) | 13.5 µM (inactive) | 10.3 µM (inactive) |  | 18.7 µM (inactive) | 23.3 µM (inactive) | 17.1 µM (inactive) | 1.68 µM (inactive) |  | 11.5 | 22.2 µM (inactive) |  | > 100 µM (inactive) | 19.9 µM (inactive) |  | 19 µM (inactive) | 17 µM (inactive) | 14.8 µM (inactive) |  |  |
| COC(=O)c1cc(OS(=O)(=O)C(F)(F)F)c(=O)n2c1CCCC2 |  | > 100 µM (inactive) |  | > 100 µM (inactive) | > 100 µM (inactive) | > 100 µM (inactive) | > 100 µM (inactive) | > 100 µM (inactive) | > 100 µM (inactive) | > 100 | > 100 µM (inactive) | > 100 µM (inactive) | > 100 µM (inactive) | > 100 µM (inactive) | > 100 µM (inactive) | > 100 µM (inactive) | > 100 µM (inactive) | > 100 µM (inactive) | > 100 µM (inactive) |  |
| Cc1ccc(Cc2nn(C)c(=O)n2-n2cccc2)cc1 | > 100 µM (inactive) | > 100 µM (inactive) |  | > 100 µM (inactive) | > 100 µM (inactive) | > 100 µM (inactive) | > 100 µM (inactive) | > 100 µM (inactive) | > 100 µM (inactive) | > 100 | > 100 µM (inactive) | > 100 µM (inactive) | > 100 µM (inactive) | > 100 µM (inactive) | > 100 µM (inactive) | > 100 µM (inactive) | > 100 µM (inactive) | > 100 µM (inactive) | > 100 µM (inactive) | > 100 µM (inactive) |
| c1ccc2c(c1)ncn2CCn1ccnc1 | > 100 µM (inactive) | > 100 µM (inactive) |  | > 100 µM (inactive) | > 100 µM (inactive) | > 100 µM (inactive) | > 100 µM (inactive) | > 100 µM (inactive) | 15.8 µM (inactive) | > 100 | > 100 µM (inactive) | > 100 µM (inactive) | > 100 µM (inactive) | > 100 µM (inactive) | > 100 µM (inactive) | > 100 µM (inactive) | > 100 µM (inactive) | > 100 µM (inactive) | > 100 µM (inactive) | > 100 µM (inactive) |
| Cc1ccc(/N=N/c2c(O)ccc3cc(S(=O)(=O)O)ccc23)cc1 | > 100 µM (inactive) | > 100 µM (inactive) | > 100 µM (inactive) | > 100 µM (inactive) |  | 85.5 µM (inactive) | > 100 µM (inactive) | > 100 µM (inactive) | > 100 µM (inactive) | > 100 | 74.6 µM (inactive) | > 100 µM (inactive) | > 100 µM (inactive) | > 100 µM (inactive) | > 100 µM (inactive) | > 100 µM (inactive) | > 100 µM (inactive) | > 100 µM (inactive) | > 100 µM (inactive) |  |
| N#Cc1c(N)nc(Sc2ccccc2N)c(C#N)c1-c1ccccc1 |  | 11.4 µM (inactive) | 24.5 µM (inactive) |  | 10.6 µM (inactive) | 17.8 µM (inactive) |  | 46.3 µM (inactive) | 15.9 µM (inactive) | 15.2 | 17.8 µM (inactive) | 22.1 µM (inactive) |  | 20.2 µM (inactive) | 28.2 µM (inactive) | 19.4 µM (inactive) | 9.64 µM (inactive) | 24.5 µM (inactive) | 16.9 µM (inactive) | 15 µM (inactive) |
| O=C(CC(=O)N1N=C(N2CCCCC2)CC1c1ccccc1)Nc1ccc(Cl)cc1 (centres undefined) | > 100 µM (inactive) | > 100 µM (inactive) | > 100 µM (inactive) |  | > 100 µM (inactive) | > 100 µM (inactive) | > 100 µM (inactive) | > 100 µM (inactive) | > 100 µM (inactive) | > 100 | > 100 µM (inactive) | > 100 µM (inactive) |  | > 100 µM (inactive) | > 100 µM (inactive) | > 100 µM (inactive) | > 100 µM (inactive) | > 100 µM (inactive) | > 100 µM (inactive) | > 100 µM (inactive) |
| O=C1Oc2ccccc2N/C1=C/C(=O)c1ccc([N+](=O)[O-])cc1 | > 100 µM (inactive) | > 100 µM (inactive) |  | > 100 µM (inactive) | > 100 µM (inactive) | > 100 µM (inactive) | > 100 µM (inactive) | > 100 µM (inactive) | > 100 µM (inactive) | > 100 | > 100 µM (inactive) | > 100 µM (inactive) | > 100 µM (inactive) | > 100 µM (inactive) |  | > 100 µM (inactive) | 80.7 µM (inactive) | > 100 µM (inactive) | > 100 µM (inactive) | > 100 µM (inactive) |
| COc1cc([C@@]23OC[C@@H]4[C@@H](OC[C@@H]42)c2cc4c(cc23)OCO4)cc(OC)c1OC | < 0.01 µM (active) | < 0.01 µM (active) |  | 0.873 µM (active) | < 0.01 µM (active) | 0.0851 µM (active) |  | > 48.2 µM (inactive) | 5.19 µM (inactive) | < 0.01 | < 0.01 µM (active) | < 0.01 µM (active) | < 0.01 µM (active) | < 0.01 µM (active) | 23.5 µM (inactive) | < 0.01 µM (active) | < 0.01 µM (active) | < 0.01 µM (active) | 0.0838 µM (active) | < 0.01 µM (active) |
| C=C1[C@@](C)([C@@H]2CCCS2)[C@H]2C(C)=C[C@]1(C)n1c(=O)n(-c3ccccc3)c(=O)n12 | > 100 µM (inactive) | > 100 µM (inactive) |  |  | > 100 µM (inactive) | > 100 µM (inactive) | > 100 µM (inactive) | > 100 µM (inactive) | > 100 µM (inactive) | > 100 | > 100 µM (inactive) | > 100 µM (inactive) | > 100 µM (inactive) |  | > 100 µM (inactive) | > 100 µM (inactive) | > 100 µM (inactive) | > 100 µM (inactive) | > 100 µM (inactive) | > 100 µM (inactive) |
| COc1ccccc1N1CCN(CCCN2C(C(=O)c3ccccc3)=C(O)c3c(C)cc(C)nc3S2(=O)=O)CC1 | 55 µM (inactive) | 27.8 µM (inactive) | 22.6 µM (inactive) | 5.28 µM (inactive) | 96.4 µM (inactive) | 42.5 µM (inactive) | 63 µM (inactive) | 92.7 µM (inactive) | 73.3 µM (inactive) | 56.6 | > 100 µM (inactive) | 77.8 µM (inactive) | 85.9 µM (inactive) | 64.1 µM (inactive) | > 100 µM (inactive) | 47.2 µM (inactive) | > 100 µM (inactive) | 34.8 µM (inactive) | > 100 µM (inactive) |  |
| CCOc1ccc2nc(-c3ccc(O)cc3)sc2c1 | 46.9 µM (inactive) | 17.2 µM (inactive) |  | 37 µM (inactive) | > 100 µM (inactive) | 19.6 µM (inactive) | > 100 µM (inactive) | > 100 µM (inactive) |  | 97.3 | 35 µM (inactive) |  | 24.2 µM (inactive) | 48.6 µM (inactive) |  | > 100 µM (inactive) | 58.7 µM (inactive) | 46.6 µM (inactive) | > 100 µM (inactive) |  |
| Cc1cc(O)c(C(C)C)cc1C(=S)Nc1ccc(Cl)cc1 | 14.7 µM (inactive) |  |  |  | 8.11 µM (inactive) | 7 µM (inactive) |  | 15 µM (inactive) | 7.19 µM (inactive) | 10.7 | 10.1 µM (inactive) | 18.5 µM (inactive) | 21.9 µM (inactive) | 10.6 µM (inactive) | 13.9 µM (inactive) |  | 11 µM (inactive) | 14.8 µM (inactive) | 7.52 µM (inactive) | 15.1 µM (inactive) |
| S=C1N(c2ccc(Cl)cc2)C2=C(/N=N/c3ccccc3)C(=Nc3ccccc3S2)N1c1ccccn1 | 14.2 µM (inactive) | 10.1 µM (inactive) | 12.6 µM (inactive) |  | 0.167 µM (active) | 3.59 µM (inactive) | 12.5 µM (inactive) | 19.1 µM (inactive) |  | 10.2 | 11.6 µM (inactive) | 19.4 µM (inactive) | 17.8 µM (inactive) | 14.5 µM (inactive) | 15.4 µM (inactive) | 13.6 µM (inactive) | 13.2 µM (inactive) | 17.1 µM (inactive) | 2.78 µM (inactive) | 17.4 µM (inactive) |
| Nc1ccc(/N=N/c2ccc(/C=C/c3ccc(/N=N/c4ccc(N)c5ccc(S(=O)(=O)O)cc45)cc3S(=O)(=O)O)c(S(=O)(=O)O)c2)c2cc(S(=O)(=O)O)ccc12 | > 100 µM (inactive) | > 100 µM (inactive) | 88.1 µM (inactive) | > 100 µM (inactive) | > 100 µM (inactive) | > 100 µM (inactive) | > 100 µM (inactive) | > 100 µM (inactive) | > 100 µM (inactive) | > 100 | > 100 µM (inactive) | > 100 µM (inactive) | > 100 µM (inactive) | > 100 µM (inactive) | > 100 µM (inactive) | > 100 µM (inactive) |  | > 100 µM (inactive) | > 100 µM (inactive) | > 100 µM (inactive) |
